Tests used:
Nilaparvata lugens = Nilaparvata lugens test (foliar application), outdoor trial rice, Philippines; type: in vivo
Procedure: Action of the crystalline modification I of the compound of the formula (I) against plant-damaging insects/outdoor trial rice, Philippines
Nilaparvata lugens Test (Foliar Application)
To produce a suitable preparation of active compound, the oil-based suspension concentrate prepared according to Example 2.3 (OD 100 formulation) was diluted with water to the desired concentration. After the desired period of time, the kill in % was determined 100% means that all leafhoppers have been killed; 0% means that none of the leafhoppers have been killed.

[1] = Solid-state properties of the crystalline modifications (stability, moisture uptake, grindability); type: physicochemical

CN(Cc1ccc(Cl)nc1)C1=CC(=O)OC1 [crystalline modification I, 4-{[(6-chloropyrid-3-yl)methyl](methyl)amino}furan-2(5H)-one]
Kill rate in % after 14 days (Nilaparvata lugens; Active compound concentration 200 g/ha, foliar application of OD 100 formulation of Example 2.3 diluted with water, rice, outdoor trial, 100% = all leafhoppers killed): 100%
activity against Nilaparvata lugens (in words) (Nilaparvata lugens; foliar application, outdoor trial rice): good activity
thermodynamic stability of the crystalline modification [1]: thermodynamically stable
grindability ([1]; compared to other crystalline modifications): easier to comminute/grind
tendency to absorb atmospheric moisture ([1]; compared to the crystalline modification II): reduced tendency to absorb atmospheric moisture
conversion into another crystalline modification on storage ([1]; prolonged storage): does not convert into another crystalline modification

CN(Cc1ccc(Cl)nc1)C1=CC(=O)OC1 [crystalline modification II, 4-{[(6-chloropyrid-3-yl)methyl](methyl)amino}furan-2(5H)-one, reference compound]
thermodynamic stability of the crystalline modification [1]: metastable

— US8324253B2, “Crystalline modification of 4-(N-methyl-Z-chloro-5pyridy methylamino)-2, 5-dihydrofuran-2-on” (Bayer Cropscience AG, priority 2006, dated 2012)
